The subject of this experiment is neovascularization. The experiment can be described thus: In vivo angiogenesis, rabbit ear chamber model. The procedure: In an in vivo model of angiogenesis, FGF-2LI is evaluated using the rabbit ear chamber system modified and improved by Howden, G. F., and Silver, I. A., (Int. Endodontic J. 13: 3-16 (1980)), observing the growth factor-induced neovascularization, or its inhibition, by modified growth factors or other reagents.
Rabbits are sedated using 50-70 mg/kg ketamine and 10 mg/kg xylozine administered intramuscularly. The ears are shaved with an electric hair clipper and cleaned with water, followed by Betadine®. To minimize the risk of infection, the rabbits are given 20,000 units/kg benzathine penicillin intramuscularly prior to insertion of the ear chambers. The chamber is inserted into an approximately 0.75 cm area which is not crossed by any major vessels. During the course of the experiments, observations or any minor handling of ear chambers of the animals is done by sedating the animal using the intramuscular administration of a combination of Butorphanol® and acepromazine at levels of 1 mg/kg each. FGF-2 or FGF-2LI bound to heparin-Sepharose® beads in a controlled-release alginate capsule is contained in one of the ear chambers and the other is used as a control containing only the heparin-Sepharose® alginate capsule vehicle. Thus, the effect of the growth factors and the controlled-release capsule alone can be observed simultaneously in the same animal. […] The animals are kept for 4 to 6 weeks and neovascularization is observed visually and recorded photographically at weekly intervals.
The criteria for evaluation of the degree of neovascularization using this procedure is set out below.

The record followed here is patent US5491220A, “Surface loop structural analogues of fibroblast growth factors” (Yeda Research and Development Co., Ltd., priority 1994, dated 1996).

On to “FGF-2LI: human FGF-2 with loop residues 118-122 replaced by Ala-Gln-Phe-Pro-Asn from human interleukin-1β (SEQ ID NO 15)”, for which the “Angiogenesis at 400 ng/chamber” value (400 ng/chamber) was “greatly stimulates formation of capillaries and larger vessels”. Also, the “Concentration range over which stimulatory activity is observed” value (rabbit ear chamber) is recorded as 0.1-400 ng/chamber. The “Potential to induce angiogenesis (neovascularization)” value (rabbit ear chamber, controlled-release alginate capsule) was “superior to FGF-2”. Moreover, the “Vessel formation in the chamber” value (rabbit ear chamber, versus control chambers) is on record as “stimulate large vessel formation”.
